Data taken from article PMC7561186, “Rational design of balanced dual-targeting antibiotics with limited resistance” (PLoS Biology, 2020).
Values after ≈ are worked out from the molar mass of the structure shown. Values joined by “and” are separate entries in the source; they are usually repeats but may differ in a detail not shown here. Equal entries are not always repeated.

What was measured:
Format in all cases: cell-based
[1] = test system: S. aureus; assay: pH-dependent MIC determination; conditions: for MIC: Staphylococcus aureus
Description: MICs were determined using a standard serial broth microdilution technique according to the CLSI guidelines. Briefly, bacterial strains were inoculated onto MHBII agar plates and were grown overnight at 37 °C. Next, 3 individual colonies from each strain were inoculated into 1 mL MHBII medium and propagated at 37 °C, 250 rpm overnight. In the cases of Enterococcus and Streptococcus sp., cells were plated to BHI agar plates, and BHI broth was used to determine MICs. […] Following dilutions, each well was seeded with 5×10^4 bacterial cells. All measurements were performed in 3 parallel replicates and to avoid possible edge effects in microwell plates, side rows (A and H) were filled with sterile medium. Following inoculations, plates were covered with lids and wrapped in polyethylene plastic bags to minimize evaporation but allow for O2 transfer. Plates were incubated at 37 °C under continuous shaking at 150 rpm for 18 hours. After incubation, OD600 of each well was measured using a BioTek Synergy 2 microplate reader.

[2] = test system: S. aureus ATCC 700699 VISA; assay: Time-dependent killing; conditions: for Time-kill bacterial count: 10xMIC; for Colony numbers: time-kill raw counts, Samples 1-3
Description: Time-dependent killing experiments were performed as previously. S. aureus ATCC 700699 VISA cells were inoculated to MHBII agar plates and grown overnight at 37 °C. Next, 3 independent stationer-phase starter cultures were grown at 37 °C, 250 rpm overnight, in 3 × 1 mL MHBII broth. Next, 100-fold diluted cultures were prepared from each in 20 mL fresh MHBII medium and grown at 37 °C, 250 rpm until early exponential phase (OD600 = 0.3–0.4; i.e., 5 × 10^5 cells/mL). […] Cells were treated with antibiotics in Erlenmeyer flasks at 37 °C, 150 rpm for 48 hours. […] Next, 50 μL from each dilution were plated on MHBII agar plates, and plates were incubated overnight at 37 °C to calculate CFU per mL.

[3] = test system: S. aureus clinical isolates; assay: microbe, parasite or virus in culture; conditions: Staphylococcus aureus
[4] = S. aureus ATCC 43300 (MRSA), pH 5.5
[5] = S. aureus ATCC 43300 (MRSA), pH 7.3
[6] = S. aureus ATCC 700699 (VISA), pH 5.5
[7] = S. aureus ATCC 700699 (VISA), pH 7.3

SMILES: Nc1nc(-n2cc(C(=O)O)c(=O)c3cc(F)c(N4CC(O)C4)c(Cl)c32)c(F)cc1F [Delafloxacin]
- MIC [1, 4]: 0.0005 µg/mL
- MIC [1, 5]: 0.004 µg/mL
- MIC [1, 6]: 0.032 µg/mL
- MIC [1, 7]: 1 µg/mL

SMILES: CN[C@H](CC(C)C)C(=O)N[C@H]1C(=O)N[C@@H](CC(N)=O)C(=O)N[C@H]2C(=O)N[C@H]3C(=O)N[C@H](C(=O)N[C@H](C(=O)O)c4cc(O)cc(O)c4-c4cc3ccc4O)[C@H](O)c3ccc(c(Cl)c3)Oc3cc2cc(c3O[C@@H]2O[C@H](CO)[C@@H](O)[C@H](O)[C@H]2O[C@H]2C[C@](C)(N)[C@H](O)[C@H](C)O2)Oc2ccc(cc2Cl)[C@H]1O [Vancomycin]
- Time-kill bacterial count ([2]; time 0 hour): 2.80E+05
- Time-kill bacterial count ([2]; time 3 hour): 8.40E+04
- Time-kill bacterial count ([2]; time 6 hour): 3.30E+04
- Time-kill bacterial count ([2]; time 12 hour): 1.30E+03
- Time-kill bacterial count ([2]; time 18 hour): 3.80E+03
- Time-kill bacterial count ([2]; time 24 hour): 1.60E+02
- Time-kill bacterial count ([2]; time 48 hour): 5.30E+01
- Colony numbers ([2]; time 0 h, Dilution 100): 145 and 132 and 137
- Colony numbers ([2]; time 3 h, Dilution 100): 48 and 36 and 42
- Colony numbers ([2]; time 6 h, Dilution 100): 20 and 13 and 16
- Colony numbers ([2]; time 12 h, Dilution 10): 8 and 7 and 4
- Colony numbers ([2]; time 18 h, Dilution 1): 231 and 176 and 163
- Colony numbers ([2]; time 24 h, Dilution 0.5): 17 and 12 and 18
- MIC ([3]; ATCC 29213 / MSSA): 1 µg/mL (≈ 0.69 µM)
- MIC ([3]; MRSA): 1 µg/mL (≈ 0.69 µM)
- MIC ([3]; MRSA / NRS 3 / VISA): 8 µg/mL (≈ 5.52 µM)
- MIC ([3]; MRSA / NRS 4 / VISA): 4 µg/mL (≈ 2.76 µM)
- MIC ([3]; MRSA / NRS 18 / VISA): 8 µg/mL (≈ 5.52 µM)
- MIC ([3]; MRSA / NRS 19 / VISA): 4 µg/mL (≈ 2.76 µM)
- MIC ([3]; MRSA / NRS 21 / VISA): 4 µg/mL (≈ 2.76 µM)
- MIC ([3]; MRSA / NRS 22 / USA600 / VISA): 8 µg/mL (≈ 5.52 µM)
- MIC ([3]; MRSA / NRS 23 / VISA): 4 µg/mL (≈ 2.76 µM)
- MIC ([3]; MRSA / NRS 24 / VISA): 8 µg/mL (≈ 5.52 µM)
- MIC ([3]; MRSA / NRS 26): 2 µg/mL (≈ 1.38 µM)
- MIC ([3]; MRSA / NRS 27 / VISA): 4 µg/mL (≈ 2.76 µM)
- MIC ([3]; MRSA / NRS 29 / VISA): 4 µg/mL (≈ 2.76 µM)
- MIC ([3]; MRSA / NRS 37 / VISA): 4 µg/mL (≈ 2.76 µM)
- MIC ([3]; MRSA / NRS 54): 2 µg/mL (≈ 1.38 µM)
- MIC ([3]; MRSA / NRS 56 / VISA): 4 µg/mL (≈ 2.76 µM)
- MIC ([3]; MRSA / USA100 / VRSA): > 64 µg/mL
- MIC ([3]; MRSA / USA800 / VRSA): > 64 µg/mL
- MIC ([3]; MSSA): 1 µg/mL (≈ 0.69 µM)
- MIC ([3]; MSSA / NRS 12 / VISA): 4 µg/mL (≈ 2.76 µM)
- MIC ([3]; MSSA / NRS 13 / VISA): 4 µg/mL (≈ 2.76 µM)
- MIC ([3]; MSSA / NRS 14 / VISA): 4 µg/mL (≈ 2.76 µM)
- MIC ([3]; MSSA / NRS 17 / VISA): 8 µg/mL (≈ 5.52 µM)
- MIC ([3]; MSSA / NRS 28 / VISA): 4 µg/mL (≈ 2.76 µM)
- MIC ([3]; MSSA / NRS 52): 2 µg/mL (≈ 1.38 µM)
- MIC ([3]; MSSA / USA100 / VRSA): > 64 µg/mL
- potency on shift from pH 7.3 to 5.5 ([1]; S. aureus, in words): unaffected
- MIC [1, 4]: 2 µg/mL
- MIC [1, 5]: 1 µg/mL
- MIC [1, 6]: 8 µg/mL
- MIC [1, 7]: 8 µg/mL
